Experimental data published in patent US7612061B2, “Piperazine compounds” (Les Laboratoires Servier, priority 2005, dated 2009).
Counter-ions that a name gives are not always drawn.

Tests used:
[1] = molecular target: T1, serotonin (5-HTT) reuptake site (Rattus norvegicus, UniProt P31652); test: Affinity for serotonin reuptake sites in the rat ([3H]-citalopram competition); format: binding; conditions: rat frontal cortex membranes, 0.7 nM [3H]-citalopram, 2 hours at 25° C.; pKi=-log Ki (Cheng-Prusoff); read-out: pKi r5-HTT (converted)
T1 construct: on rat frontal cortex membranes; from tissue; host or cells: rat frontal cortex membranes
Protocol: The affinity of the compounds for the serotonin (5-HTT) reuptake site is evaluated by competition experiments with [^3H]-citalopram on rat frontal cortex membranes. The cortices are homogenised using a Polytron in 40 volumes (weight/volume) of cold Tris-HCl (50 mM, pH 7.4) incubation buffer containing 120 mM NaCl and 5 mM KCl and are then centrifuged for a first time. The sediment is resuspended in the same buffer, incubated for 10 minutes at 37° C. and then re-centrifuged. The membranes are washed a further two times and the sediment is then resuspended in an appropriate volume of incubation buffer. The membranes are then incubated for 2 hours at 25° C. with the compound under test in the presence of 0.7 nM [^3H]-citalopram. Non-specific binding is determined with 10 μM fluoxetine. At the end of the incubation period, the samples are filtered through Unifilter GF/B type filters pretreated with PEI (0.5%) and washed several times with the incubation buffer. The radioactivity retained on the filters is counted after addition of scintillation liquid, with the aid of a scintillation counter. The isotherms obtained are analysed by non-linear regression to determine the IC50 values, which are converted into Ki using the Cheng-Prusoff equation: Ki=IC50/(1+L/kD) wherein L represents the concentration of radioligand and kD is the dissociation constant of [^3H]-citalopram on the serotonin reuptake site (0.7 nM). The results are expressed as pKi=−log Ki.

human NK1 receptors = molecular target: T2, human NK1 receptors (Homo sapiens, UniProt P25103); test: hNK1 binding ([3H]-Substance P competition on IM9 human lymphoblast cells); conditions: IM9 human lymphoblast cells endogenously expressing NK1 receptors, 1.5 nM [3H]-Substance P, 90 minutes at ambient temperature; pKi=-log Ki (Cheng-Prusoff)
T2 construct: IM9 human lymphoblast cells endogenously expressing NK1 receptors; endogenous in cells; host or cells: IM9 human lymphoblast cells (whole-cell preparation)
Protocol: The affinity of compounds of the invention was determined by competition experiments in the presence of [^3H]-Substance P (Sar-9, MetO2-11,2-propyl-3,4-3H). IM9 human lymphoblast cells endogenously expressing NK1 receptors are centrifuged and taken up in the incubation buffer containing 50 mM TRIS, 150 mM NaCl, 4 mM CaCl2, protease inhibitors at 1/100^e (Cocktail SIGMA P8340) and 0.2% BSA. The volume of incubation buffer is determined so as to obtain a concentration of 5×10^6 cells/ml. The cell preparation is then incubated together with 1.5 nM [^3H]-Substance P and the compound under test for 90 minutes at ambient temperature. Non-specific binding is determined in the presence of 1 μM GR 205171.
At the end of the incubation period, the samples are filtered through Unifilter GF/B type filters pretreated with PEI (0.1%) and washed several times with the filtration buffer (50 mM TRIS, 150 mM NaCl, 4 mM CaCl2). The radioactivity retained on the filters is measured by counting after addition of scintillation liquid to the filters. The counts are analysed by non-linear regression, allowing the isotherms to be plotted and the IC50 values to be determined. The latter are then converted into inhibition constants (Ki) by means of the Cheng-Prusoff equation: Ki=IC50/(1+L/KD) wherein L is the concentration of [^3H]-Substance P and KD is the dissociation constant of [^3H]-Substance P for human NK1 receptors (0.53 nM). The results are expressed as pKi(−log Ki).

T1 sequence (P31652 whole entry): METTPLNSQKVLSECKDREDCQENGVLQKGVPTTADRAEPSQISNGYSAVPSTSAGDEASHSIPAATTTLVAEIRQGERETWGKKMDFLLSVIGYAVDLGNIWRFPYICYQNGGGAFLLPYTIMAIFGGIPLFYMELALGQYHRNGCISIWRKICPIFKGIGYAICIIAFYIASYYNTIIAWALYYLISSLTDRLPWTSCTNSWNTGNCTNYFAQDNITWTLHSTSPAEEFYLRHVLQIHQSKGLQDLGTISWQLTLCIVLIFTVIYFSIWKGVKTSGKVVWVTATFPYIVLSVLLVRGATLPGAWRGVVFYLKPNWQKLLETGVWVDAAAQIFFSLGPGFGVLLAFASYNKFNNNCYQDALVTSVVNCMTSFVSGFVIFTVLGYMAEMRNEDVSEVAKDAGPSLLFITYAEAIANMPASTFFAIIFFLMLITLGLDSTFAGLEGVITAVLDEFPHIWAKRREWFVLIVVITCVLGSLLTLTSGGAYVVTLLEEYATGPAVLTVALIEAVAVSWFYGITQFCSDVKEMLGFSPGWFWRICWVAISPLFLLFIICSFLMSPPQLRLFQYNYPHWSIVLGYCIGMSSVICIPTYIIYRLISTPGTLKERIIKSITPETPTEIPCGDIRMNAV
T2 sequence (P25103 whole entry): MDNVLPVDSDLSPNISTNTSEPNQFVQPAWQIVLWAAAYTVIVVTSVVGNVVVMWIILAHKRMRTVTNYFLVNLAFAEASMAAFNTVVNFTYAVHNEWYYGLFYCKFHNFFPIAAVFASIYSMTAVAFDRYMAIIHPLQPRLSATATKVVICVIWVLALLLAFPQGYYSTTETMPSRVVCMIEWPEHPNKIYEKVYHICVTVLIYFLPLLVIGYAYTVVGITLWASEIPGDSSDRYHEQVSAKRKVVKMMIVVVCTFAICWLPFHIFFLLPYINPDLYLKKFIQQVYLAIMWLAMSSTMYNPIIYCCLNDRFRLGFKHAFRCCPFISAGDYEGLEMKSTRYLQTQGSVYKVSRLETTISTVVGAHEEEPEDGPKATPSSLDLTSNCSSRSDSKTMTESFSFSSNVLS

SMILES | Ki [1] [nM] | Ki (human NK1 receptors) [nM]
Cc1cc(C)cc(CO[C@@H]2Cc3ccccc3[C@@H]2N2CCNCC2)c1 [Example 38, 1-[(1S,2R)-2-[(3,5-Dimethylbenzyl)oxy]-2,3-dihydro-1H-inden-1-yl]-piperazine dihydrochloride] | 1.86 | 
Brc1cc(Br)cc(COC2CCc3ccccc3C2N2CCCNCC2)c1 (single isomer, unassigned; (-)) [Example 19, (−) isomer of trans-1-{2-[(3,5-dibromobenzyl)oxy]-1,2,3,4-tetra-hydronaphth-1-yl}-1,4-diazepane dihydrochloride] |  | 39.8
Brc1cc(Br)cc(CO[C@@H]2Cc3ccccc3[C@H]2N2CCNCC2)c1 (racemic) [Example 1, trans-1-{2-[(3,5-Dibromobenzyl)oxy]-2,3-dihydro-1H-inden-1-yl}-piperazine dihydrochloride] | 4.47 | 145
COc1ccc2c(c1)CC[C@@H](OCc1cc(Br)cc(Br)c1)[C@@H]2N1CCNCC1 (relative stereo) [Example 13, trans-1-{2-[(3,5-Dibromobenzyl)oxy]-6-methoxy-1,2,3,4-tetrahydro-naphth-1-yl}piperazine dihydrochloride] |  | 251
NC1CCN([C@@H]2c3ccccc3OC[C@H]2OCc2cc(Br)cc(Br)c2)CC1 (relative stereo) [Example 9, trans-1-{3-[(3,5-Dibromobenzyl)oxy]-3,4-dihydro-2H-chromen-4-yl}piperidin-4-amine dihydrochloride] |  | 11
Fc1cc(Cl)cc(CO[C@@H]2COc3ccccc3[C@H]2N2CCNCC2)c1 (relative stereo) [Example 47, trans-1-{3-(3-Chloro-5-fluorobenzyloxy)-3,4-dihydro-2H-chromen-4-yl}piperazine dihydrochloride] | 35.5 | 

Results, then the compound that gave them:

Ki [1] [nM] | Ki (human NK1 receptors) [nM] | SMILES
12.3 |  | Brc1cc(Br)cc(CO[C@@H]2Cc3ccccc3[C@@H]2N2CCNCC2)c1 [Example 21, 1-{(1S,2R)-2-[(3,5-Dibromobenzyl)oxy]-2,3-dihydro-1H-inden-1-yl}-piperazine dihydrochloride]
1.07 |  | Fc1cc(F)cc(CO[C@@H]2Cc3ccccc3[C@@H]2N2CCNCC2)c1 [Example 36, 1-[(1S,2R)-2-[(3,5-Difluorobenzyl)oxy]-2,3-dihydro-1H-inden-1-yl]-piperazine dihydrochloride]
79.4 | 5.62 | Brc1cc(Br)cc(CO[C@@H]2COc3ccccc3[C@H]2N2CCNCC2)c1 (racemic) [Example 4, trans-1-{3-[(3,5-Dibromobenzyl)oxy]-3,4-dihydro-2H-chromen-4-yl}piperazine dihydrochloride]
 | 141 | FC(F)(F)c1cc(CO[C@@H]2Cc3ccccc3[C@H]2N2CCNCC2)cc(C(F)(F)F)c1 (relative stereo) [Example 40, trans-1-(2-{[3,5-Bis(trifluoromethyl)benzyl]oxy}-2,3-dihydro-1H-inden-1-yl)piperazine dihydrochloride]
49 |  | Clc1cc(Cl)cc(CO[C@@H]2COc3ccccc3[C@H]2N2CCNCC2)c1 (relative stereo) [Example 44, trans-1-{3-[(3,5-Dichlorobenzyl)oxy]-3,4-dihydro-2H-chromen-4-yl}-piperazine dihydrochloride]
 | 28.8 | Brc1cc(Br)cc(CO[C@@H]2CCOc3ccccc3[C@H]2N2CCNCC2)c1 (relative stereo) [Example 8, trans-1-{4-[(3,5-Dibromobenzyl)oxy]-2,3,4,5-tetrahydro-1-benzoxepin-5-yl}piperazine dihydrochloride]
 | 33.1 | Brc1cc(Br)cc(CO[C@@H]2CCc3ccccc3[C@H]2N2CCNCC2)c1 (racemic) [Example 15, trans-1-{2-[(3,5-Dibromobenzyl)oxy]-1,2,3,4-tetrahydronaphth-1-yl}piperazine dihydrochloride]
19.5 |  | COc1ccc2c(c1)[C@@H](N1CCNCC1)[C@H](OCc1cc(Cl)cc(Cl)c1)C2 (relative stereo) [Example 42, trans-1-{2-[(3,5-Dichlorobenzyl)oxy]-6-methoxy-2,3-dihydro-1H-inden-1-yl}piperazine dihydrochloride]
 | 7.24 | Brc1cc(Br)cc(CO[C@@H]2CCCc3ccccc3[C@H]2N2CCNCC2)c1 (relative stereo) [Example 7, trans-1-{6-[(3,5-Dibromobenzyl)oxy]-6,7,8,9-tetrahydro-5H-benzo-[7]annulen-5-yl}piperazine dihydrochloride]
